From US8507714B2, “7-membered ring compound and method of production and pharmaceutical application thereof” (Daiichi Sankyo Company, Limited, priority 2004, dated 2013)

System: DNFB-induced dermatitis in C3H/HeN mice
Conditions: 10 mg/kg orally once a day; 24 hours after DNFB application at fifth application; female C3H/HeN mice
Experimental: Effect of Test Compounds on Dermatitis Model Induced by Repeated Application of Hapten
As a control group, acetone:olive oil (1:3) was applied by the same protocol. Ear thickness was measured at every week before DNFB application and 24, 48 and 72 hours after DNFB application by using microgauge (Mitutoyo), and ear edema was evaluated by the increase in ear thickness compared to the ear thickness before the first DNFB application. […] The test compound was suspended in 0.5% hydroxypropylcellulose in distilled water (hereinafter referred to as “0.5% HPC-distilled water”) and was administered orally at doses of 2 and 10 mg/kg once a day, every day from just before the first application of hapten to the end of the experiment. Further, as a control, 0.5% HPC-distilled water instead of the test compound was administered by the same methods. The number of mice used in this experiment was seven per group.
With `COc1ccc(Cl)cc1CC1CNC(=O)CN(S(=O)(=O)c2ccc(Cl)cc2)C1=O` (centres unmarked) [Compound 29, 6-(5-chloro-2-methoxybenzyl)-4-[(4-chlorophenyl)sulfonyl]-1,4-diazepan-2,5-dione] the “inhibition rate of the skin reaction” value was 31.0%. With `COc1ccc(Cl)cc1CC1CNC(=O)CN(S(=O)(=O)c2ccc(Cl)c(N)c2)C1=O.Cl` (centres unmarked) [Compound 90, 4-[(3-amino-4-chlorophenyl)sulfonyl]-6-(5-chloro-2-methoxybenzyl)-1,4-diazepan-2,5-dione Hydrochloride] the “inhibition rate of the skin reaction” value was 25.1%. With `CC[C@@H](NC(=O)N1CC(=O)NC[C@@H](Cc2cc(Cl)ccc2OC)C1=O)c1cccc(C(=O)O)c1` [Compound 91, 3-[(1R)-1-({[(6R)-6-(5-chloro-2-methoxybenzyl)-3,7-dioxo-1,4-diazepan-1-yl]carbonyl}amino)propyl]benzoic Acid] the “inhibition rate of the skin reaction” value was 26.1%.

System: not given
Conditions: not given
`COc1ccc(F)cc1/C=C1\CNC(=O)CN(S(=O)(=O)c2ccc(Cl)s2)C1=O` gave a melting point of 150 to 153 °C. Compound `CC[C@@H](NC(=O)N1CC(=O)NC[C@@H](Cc2cc(Cl)ccc2OC)C1=O)c1cccc(C(=O)[O-])c1.[Na+]` has a melting point of 161 to 163 °C. In the case of `COC(=O)C[C@@H]1C(=O)NC[C@H](Cc2cc(F)ccc2OC)C(=O)N1S(=O)(=O)c1ccc(Cl)cc1`, the melting point is reported as 73 to 76 °C. `CC[C@@H](NC(=O)N1CC(=O)NCC(Cc2cc(Cl)ccc2OC)C1=O)C(=O)Nc1nnn[nH]1` (some centres unmarked) gave a melting point of 141 to 142 °C. With `CC[C@@H](NC(=O)N1CC(=O)NCC(Cc2cc(Cl)ccc2OC)C1=O)C(=O)Nc1ccc(C)c(C(=O)O)c1` (some centres unmarked) the melting point was 132 to 134 °C. Compound `COC(=O)COc1ccc(Cl)cc1CC1CNC(=O)CN(S(=O)(=O)c2ccc(Cl)cc2)C1=O` (centres unmarked) has a melting point of 138 to 140 °C. For `O=C(CN1CC(Cc2ccccc2)C(=O)N(S(=O)(=O)c2ccc(Cl)cc2)CC1=O)NCc1ccccc1` (centres unmarked), the melting point was 187 to 190 °C. `COc1ccc(Cl)cc1CC1CNC(=O)CN(C(=O)Nc2cccc(NC(C)=O)c2)C1=O` (centres unmarked) showed a melting point of 130 to 131 °C. Work on `Cc1cccc(CC2CNC(=O)CN(S(=O)(=O)c3ccc(Cl)cc3)C2=O)c1` (centres unmarked) yielded a melting point of 64 to 66 °C. For `N#Cc1ccc(S(=O)(=O)N2CC(=O)NC/C(=C\c3ccccc3)C2=O)cc1`, the melting point was 239 °C (dec.). Compound `COc1ccc(Cl)cc1C[C@H]1CNC(=O)[C@@H](C)N(S(=O)(=O)c2ccc(Cl)cc2)C1=O` has a melting point of 78 to 80 °C. With `COc1cc(Cl)c(F)cc1CC1CNC(=O)CN(S(=O)(=O)c2ccc(Cl)cc2)C1=O` (centres unmarked) the melting point was 80 to 90 °C. With `COc1ccc(Cl)cc1CC1CNC(=O)CN(S(=O)(=O)c2ccc(Cl)cc2)C1=O` (centres unmarked) [Compound 29, 6-(5-chloro-2-methoxybenzyl)-4-[(4-chlorophenyl)sulfonyl]-1,4-diazepan-2,5-dione] the melting point was 110 to 112 °C. `CC[C@@H](NC(=O)N1CC(=O)NC[C@@H](Cc2cc(Cl)ccc2OC)C1=O)c1cccc(C(=O)O)c1` [Compound 91, 3-[(1R)-1-({[(6R)-6-(5-chloro-2-methoxybenzyl)-3,7-dioxo-1,4-diazepan-1-yl]carbonyl}amino)propyl]benzoic Acid] showed a melting point of 121 to 123 °C.
